# Test results published in patent publication US20170342026A1, “ISOPROPOXY-PHENYLGUANIDINE SERIES SALT AND APPLICATION THEREOF IN PREPARING GROWTH PROMOTERS FOR ANIMAL FEED” (GUANGZHOU INSIGHTER BIOTECHNOLOGY CO., LTD., priority 2015, published 2017).
# Tests used:
# Type in all cases: in vivo
# Cherry Valley ducks = assay: Effects of the salts of isopropoxy-phenylguanidine in a feed for ducks; details: 50 ppm in feed, 28 days; for Average daily weight gain / Feed conversion ratio: ducks aged 1 day; for effect on production performance compared with hydrochloride: ducks
# Method: Six hundred (600) Cherry Valley ducks aged 1 day were randomly divided into 6 groups, each with 100 ducks. Different types of salts of isopropoxy-phenylguanidine were added to the feed according to Table 4. The ducks were free feeding and drinking during the test period of 28 days.
# broilers [1] = assay: Effects of the series of salts of isopropoxy-phenylguanidine on production performance of broilers; details: 50 ppm in feed, 30 days; for Average daily weight gain / Average feed conversion ratio / Survival rate (%): 1-day-old broilers; for effect on production performance compared with hydrochloride: broilers
# Method: One thousand and five hundred (1500) 1-day-old broilers were divided into 15 groups and each group with 100 broilers. Different types of salts of isopropoxy-phenylguanidine were added to the same basic diets. The broilers were free feeding and drinking and continued feeding for 30 days, then to collect statistics of the production performance and the survival rate of broilers in each group.
# [2] = system: Duroc×Landrace×Large White piglets; assay: Effects of the salts of isopropoxy-phenylguanidine in a feed for pigs; details: 100 ppm in feed; for Average daily weight gain / Feed conversion ratio: piglets aged 28 days; for effect on production performance compared with hydrochloride: pigs, 28 days
# Method: One hundred and twenty (120) Duroc×Landrace×Large White piglets aged 28 days with similar body weight were randomly divided into 6 groups, each with 20 pigs. Different types of salts of isopropoxy-phenylguanidine were added to the feeds respectively in accordance with Table 3. The pigs were free feeding and drinking during the test period of 28 days.
# broilers [3] = assay: Effects of different concentrations of isopropoxy-phenylguanidine methanesulfonate on production performance of broilers
# Method: Eight hundred (800) broilers aged 1 day were divided into 8 groups and each group with 100 broilers. Different concentrations of isopropoxy-phenylguanidine methanesulfonate were added to the same basic diets. The broilers were free feeding and drinking and continued feeding for 30 days, then to collect statistics of the production performance and the survival rate of broilers in each group.
# [4] = broilers, 5 ppm in feed, 30 days
# [5] = broilers, 10 ppm in feed, 30 days
# [6] = broilers, 20 ppm in feed, 30 days
# [7] = broilers, 50 ppm in feed, 30 days
# [8] = broilers, 100 ppm in feed, 30 days
# [9] = broilers, 200 ppm in feed, 30 days
# [10] = broilers, 500 ppm in feed, 30 days
smiles,measurement,setting,value
"CC(C)Oc1ccc(C=NNC(=N)NN=Cc2ccc(OC(C)C)cc2)cc1.O=S(=O)(O)CCO [2,2′-bis[[4-(isopropoxy)phenyl]methylene]-diaminoguanidine 2-hydroxyethylsulfonate]",Average daily weight gain,Cherry Valley ducks,67.9 g
same,Feed conversion ratio,Cherry Valley ducks,1.835
same,effect on production performance compared with hydrochloride,Cherry Valley ducks,better than hydrochloride
same,Average daily weight gain,broilers [1],49.1 g
same,Average feed conversion ratio,broilers [1],1.987
same,Survival rate (%),broilers [1],100%
same,effect on production performance compared with hydrochloride,broilers [1],better than hydrochloride
same,Average daily weight gain,[2],537 g
same,Feed conversion ratio,[2],1.697
same,effect on production performance compared with hydrochloride,[2],better than hydrochloride
"CC(C)Oc1ccc(C=NNC(=N)NN=Cc2ccc(OC(C)C)cc2)cc1.CS(=O)(=O)O [2,2′-bis[[4-(isopropoxy)phenyl]methylene]-diaminoguanidine methanesulfonate]",Daily weight gain,broilers [3]; [4],42.3 g
same,Feed conversion ratio,broilers [3]; [4],2.150
same,Survival rate (%),broilers [3]; [4],100%
same,Daily weight gain,broilers [3]; [5],43.4 g
same,Feed conversion ratio,broilers [3]; [5],2.138
same,Survival rate (%),broilers [3]; [5],100%
same,Daily weight gain,broilers [3]; [6],44.5 g
same,Feed conversion ratio,broilers [3]; [6],2.119
same,Survival rate (%),broilers [3]; [6],100%
same,Daily weight gain,broilers [3]; [7],48.9 g
same,Feed conversion ratio,broilers [3]; [7],2.087
same,Survival rate (%),broilers [3]; [7],100%
same,Daily weight gain,broilers [3]; [8],49.6 g
same,Feed conversion ratio,broilers [3]; [8],2.076
same,Survival rate (%),broilers [3]; [8],100%
same,Daily weight gain,broilers [3]; [9],49.2 g
same,Feed conversion ratio,broilers [3]; [9],2.071
same,Survival rate (%),broilers [3]; [9],100%
same,Daily weight gain,broilers [3]; [10],49.5 g
same,Feed conversion ratio,broilers [3]; [10],2.073
same,Survival rate (%),broilers [3]; [10],100%
same,effect on production performance of broilers,"broilers [3]; different concentrations (5-500 ppm) in feed, 30 days",significantly improve the production performance
same,negative impacts on the production performance,"broilers [3]; high concentrations in feed, broilers",no negative impacts
same,Average daily weight gain,Cherry Valley ducks,68.4 g
same,Feed conversion ratio,Cherry Valley ducks,1.831
same,effect on production performance compared with hydrochloride,Cherry Valley ducks,better than hydrochloride
same,Average daily weight gain,broilers [1],48.8 g
same,Average feed conversion ratio,broilers [1],1.999
same,Survival rate (%),broilers [1],100%
same,effect on production performance compared with hydrochloride,broilers [1],better than hydrochloride
same,Average daily weight gain,[2],529 g
same,Feed conversion ratio,[2],1.713
same,effect on production performance compared with hydrochloride,[2],better than hydrochloride
"CC(=O)O.CC(C)Oc1ccc(C=NNC(=N)NN=Cc2ccc(OC(C)C)cc2)cc1 [isopropoxy-phenylguanidine acetate, 2,2′-bis[[4-(isopropoxy)phenyl]methylene]-diaminoguanidine acetate]",Average daily weight gain,broilers [1],43.2 g
same,Average feed conversion ratio,broilers [1],2.129
same,Survival rate (%),broilers [1],99%
"CC(C)Oc1ccc(C=NNC(=N)NN=Cc2ccc(OC(C)C)cc2)cc1.O=C(O)c1ccccc1 [isopropoxy-phenylguanidine benzoate, 2,2′-bis[[4-(isopropoxy)phenyl]methylene]-diaminoguanidine benzoate]",Average daily weight gain,broilers [1],44.7 g
same,Average feed conversion ratio,broilers [1],2.126
same,Survival rate (%),broilers [1],100%
"CC(C)Oc1ccc(C=NNC(=N)NN=Cc2ccc(OC(C)C)cc2)cc1.O=C(O)CC(O)(CC(=O)O)C(=O)O [isopropoxy-phenylguanidine citrate, 2,2′-bis[[4-(isopropoxy)phenyl]methylene]-diaminoguanidine citrate]",Average daily weight gain,broilers [1],44.5 g
same,Average feed conversion ratio,broilers [1],2.125
same,Survival rate (%),broilers [1],100%
same,Average daily weight gain,[2],491 g
same,Feed conversion ratio,[2],1.803
"CC(C)Oc1ccc(C=NNC(=N)NN=Cc2ccc(OC(C)C)cc2)cc1.O=C(O)/C=C/C(=O)O [isopropoxy-phenylguanidine fumarate, 2,2′-bis[[4-(isopropoxy)phenyl]methylene]-diaminoguanidine fumarate]",Average daily weight gain,broilers [1],44.1 g
same,Average feed conversion ratio,broilers [1],2.136
same,Survival rate (%),broilers [1],99%
"CC(C)Oc1ccc(C=NNC(=N)NN=Cc2ccc(OC(C)C)cc2)cc1.Cl [isopropoxy-phenylguanidine hydrochloride, 2,2′-bis[[4-(isopropoxy)phenyl]methylene]-diaminoguanidine hydrochloride, reference compound]",Average daily weight gain,Cherry Valley ducks,65.3 g
same,Feed conversion ratio,Cherry Valley ducks,1.874
same,Average daily weight gain,broilers [1],46.6 g
same,Average feed conversion ratio,broilers [1],2.087
same,Survival rate (%),broilers [1],100%
same,Average daily weight gain,[2],512 g
same,Feed conversion ratio,[2],1.754
"CC(C)Oc1ccc(C=NNC(=N)NN=Cc2ccc(OC(C)C)cc2)cc1.CC(O)C(=O)O [isopropoxy-phenylguanidine lactate, 2,2′-bis[[4-(isopropoxy)phenyl]methylene]-diaminoguanidine DL-lactate]",Average daily weight gain,Cherry Valley ducks,67.8 g
same,Feed conversion ratio,Cherry Valley ducks,1.827
same,effect on production performance compared with hydrochloride,Cherry Valley ducks,better than hydrochloride
same,Average daily weight gain,broilers [1],47.9 g
same,Average feed conversion ratio,broilers [1],2.006
same,Survival rate (%),broilers [1],100%
same,effect on production performance compared with hydrochloride,broilers [1],better than hydrochloride
same,Average daily weight gain,[2],535 g
same,Feed conversion ratio,[2],1.701
same,effect on production performance compared with hydrochloride,[2],better than hydrochloride
"CC(C)Oc1ccc(C=NNC(=N)NN=Cc2ccc(OC(C)C)cc2)cc1.O=C(O)/C=C\C(=O)O [isopropoxy-phenylguanidine maleate, 2,2′-bis[[4-(isopropoxy)phenyl]methylene]-diaminoguanidine maleate]",Average daily weight gain,broilers [1],44.1 g
same,Average feed conversion ratio,broilers [1],2.137
same,Survival rate (%),broilers [1],100%
"CC(C)Oc1ccc(C=NNC(=N)NN=Cc2ccc(OC(C)C)cc2)cc1.O=C(O)C(=O)O [isopropoxy-phenylguanidine oxalate, 2,2′-bis[[4-(isopropoxy)phenyl]methylene]-diaminoguanidine oxalate]",Average daily weight gain,broilers [1],43.1 g
same,Average feed conversion ratio,broilers [1],2.145
same,Survival rate (%),broilers [1],100%
"CC(C)Oc1ccc(C=NNC(=N)NN=Cc2ccc(OC(C)C)cc2)cc1.O=P(O)(O)O [isopropoxy-phenylguanidine phosphate, 2,2′-bis[[4-(isopropoxy)phenyl]methylene]-diaminoguanidine phosphate]",Average daily weight gain,Cherry Valley ducks,61.2 g
same,Feed conversion ratio,Cherry Valley ducks,1.926
same,Average daily weight gain,broilers [1],44.0 g
same,Average feed conversion ratio,broilers [1],2.139
same,Survival rate (%),broilers [1],100%
"CC(C)Oc1ccc(C=NNC(=N)NN=Cc2ccc(OC(C)C)cc2)cc1.O=C(O)CCC(=O)O [isopropoxy-phenylguanidine succinate, 2,2′-bis[[4-(isopropoxy)phenyl]methylene]-diaminoguanidine succinate]",Average daily weight gain,broilers [1],43.6 g
same,Average feed conversion ratio,broilers [1],2.143
same,Survival rate (%),broilers [1],100%
"CC(C)Oc1ccc(C=NNC(=N)NN=Cc2ccc(OC(C)C)cc2)cc1.O=S(=O)(O)O [isopropoxy-phenylguanidine sulfate, 2,2′-bis[[4-(isopropoxy)phenyl]methylene]-diaminoguanidine sulfate]",Average daily weight gain,broilers [1],43.7 g
same,Average feed conversion ratio,broilers [1],2.131
same,Survival rate (%),broilers [1],100%
"CC(C)Oc1ccc(C=NNC(=N)NN=Cc2ccc(OC(C)C)cc2)cc1.O=C(O)C(O)C(O)C(=O)O [isopropoxy-phenylguanidine tartrate, 2,2′-bis[[4-(isopropoxy)phenyl]methylene]-diaminoguanidine tartrate]",Average daily weight gain,broilers [1],43.9 g
same,Average feed conversion ratio,broilers [1],2.131
same,Survival rate (%),broilers [1],98%
